Source: US20110250134A1, “SUSTAINED RELEASE NITRIC OXIDE FROM LONG LIVED CIRCULATING NANOPARTICLES” (priority 2010, published 2011)

Assay: Total NO released (NO agents decomposition)
Format: physicochemical
Description: Total NO released (NO agents decomposition). Gaseous NO levels were measured using a chemiluminescent NO analyzer (Sievers NO analyzer, Model 280i, Boulder, Colo.). […] Solutions were continuously bubbled with pure nitrogen (0.2 L/min). The gas phase was collected into the NO analyzer for a minute every 10 min., and the excess flow was evacuated through an underwater seal (1 cm H2O).

Structure (SMILES) | NO liberated experimentally
NCCN(CCN)/[N+]([O-])=N/O [DETA NONOate, Diethylenetriamine NONOate] | 10.7 μmols of NO/mg
NCCCN(CCCN)/[N+]([O-])=N/O [DPTA NONOate, Dipropylenetriamine NONOate] | 9.4 µmol/mg
